Several values for one entry are separate records, joined by “and”; a condition that tells them apart may be missing. Identical values can stand only once. Entries after “also recorded” stand apart in the source; their conditions may differ.
Legend:
HeLa wild-type cells = test: Cell viability assay (MTT), inhibitor alone; format: cell-based; conditions: for Cell viability normalized to mock treated cells + 0 µM MMC: individual replicate values (Supplementary Figure 11a); for 95% confidence interval of difference: Figure 5d S11a, Ctrl. [-MMC] vs. compound [-MMC], Tukey's multiple comparisons test
Method: HeLa wild-type (HeLa Flp-In T-REx WT, kind gift from Prof. Matthias Hentze) and HeLa DPP9^KO cells (prepared in-house) were cultured in DMEM (ThermoFisher, USA) supplemented with 10% FBS (PAN Biotech, Germany), 2 mM L-Glutamin (ThermoFisher, USA) and 1% Penicillin/Streptomycin (100 U mL^−1 Penicillin and 100 µg mL^−1 Streptomycin, ThermoFisher, USA). Cells were seeded in 96-well flat-bottom cell culture plates (Greiner, Germany) at a concentration of 5 × 10^3 cells per well (37 °C and 5% CO2). The indicated concentration of Mitomycin C (MMC, Merck) was added to the cells 24 h after seeding, together with 10 µM of the indicated inhibitor. The inhibitors were refreshed every 24 h. Control cells were treated with DMSO.
Cell viability was measured 72 hours after the MMC treatment. For this, the medium was removed and replaced with phenol-red free DMEM (ThermoFisher, USA) containing 0.5 mg mL^−1 MTT (Sigma Aldrich, USA). Cells were incubated for 30 min at 37 °C, 5% CO2. Subsequently, the medium was removed and replaced by DMSO. The plates were shaken on an orbital shaker for 20 min before measuring the MTT signal on a CARIOstar Plus microplate reader (BMT labtech, Germany). Each experiment was performed three times, each in triplicates.

PREP = target: T1, PREP (Homo sapiens, UniProt P48147); test: PREP biochemical inhibition assay (GP-AMC substrate, IC50); conditions: for IC50: GP-AMC 2 mM, 10 nM enzyme, 45 min pre-incubation at 30 °C; for PREP activity: individual replicates
T1 construct: purchased Sigma Aldrich, USA
T1 sequence (P48147 1-710): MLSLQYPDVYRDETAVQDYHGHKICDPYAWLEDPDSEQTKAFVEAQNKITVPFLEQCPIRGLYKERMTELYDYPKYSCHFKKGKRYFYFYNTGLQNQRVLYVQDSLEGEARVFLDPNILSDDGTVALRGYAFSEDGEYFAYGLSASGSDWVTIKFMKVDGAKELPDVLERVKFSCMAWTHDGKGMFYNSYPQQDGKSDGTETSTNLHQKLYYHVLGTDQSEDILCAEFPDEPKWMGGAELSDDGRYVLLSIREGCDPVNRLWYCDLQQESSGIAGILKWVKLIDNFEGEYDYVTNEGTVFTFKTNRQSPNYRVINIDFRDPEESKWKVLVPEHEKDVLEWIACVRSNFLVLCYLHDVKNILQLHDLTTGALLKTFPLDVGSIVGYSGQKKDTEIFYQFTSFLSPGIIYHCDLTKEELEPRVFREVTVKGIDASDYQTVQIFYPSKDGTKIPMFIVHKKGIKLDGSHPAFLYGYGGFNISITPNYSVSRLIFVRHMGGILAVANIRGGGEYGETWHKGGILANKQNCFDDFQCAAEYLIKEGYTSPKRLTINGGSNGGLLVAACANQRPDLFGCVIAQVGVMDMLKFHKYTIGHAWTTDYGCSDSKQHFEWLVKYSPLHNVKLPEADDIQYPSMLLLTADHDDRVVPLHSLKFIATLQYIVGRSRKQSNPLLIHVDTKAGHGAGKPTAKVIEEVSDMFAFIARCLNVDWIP
Method: Enzyme activity of DPP4, DPP8, DPP9 (Proteros Biostructures GmbH, Germany) and PREP (Sigma Aldrich, USA) was determined by measuring the initial velocity of AMC release from the fluorogenic substrate GP-AMC (Sigma Aldrich, USA) using a Tecan Spark® 10 M multimode microplate reader (Tecan Group Ltd., Switzerland) in activity buffer (20 mM HEPES/KOH pH 7.3, 110 mM potassium acetate, 2 mM Mg acetate, 0.5 mM EGTA, 0.02% Tween 20, supplemented with 1 mM DTT) and a final volume of 20 μL for maximal 60 min at 30 °C. Prior to activity measurement, 10 nM enzyme was incubated for 45 min at 30 °C and gentle shaking with the inhibitor compounds in concentrations ranging from 0 to 100 μM. The compounds were dissolved in DMSO and diluted in activity buffer (final DMSO concentration: 1%). […]. IC50 values were calculated using Graph-Pad Prism v10.2.3 using the equation: [Inhibitor] vs. response—Variable slope (four parameters). All measurements were performed in triplicates and error bars represent standard errors of the fit.

[1] = target: T2, HEK293 cell lysates (proteome-wide targets of probe 9) (Homo sapiens, UniProt P05388); test: Competitive ABPP / direct target identification with alkyne probe 9 in HEK293 cell lysates; format: binding, H. sapiens; conditions: protein RPLP0;RPLP0P6
T2 construct: endogenous in cells; host or cells: HEK293 cell lysate

[2] = target: T3, HEK293 cell lysates (proteome-wide targets of probe 9) (Homo sapiens, UniProt P0DMV8); test: as above; format: binding, H. sapiens; conditions: protein HSPA1A;HSPA1B
T3 construct: endogenous in cells; host or cells: HEK293 cell lysate
T3 sequence (P0DMV8 whole entry): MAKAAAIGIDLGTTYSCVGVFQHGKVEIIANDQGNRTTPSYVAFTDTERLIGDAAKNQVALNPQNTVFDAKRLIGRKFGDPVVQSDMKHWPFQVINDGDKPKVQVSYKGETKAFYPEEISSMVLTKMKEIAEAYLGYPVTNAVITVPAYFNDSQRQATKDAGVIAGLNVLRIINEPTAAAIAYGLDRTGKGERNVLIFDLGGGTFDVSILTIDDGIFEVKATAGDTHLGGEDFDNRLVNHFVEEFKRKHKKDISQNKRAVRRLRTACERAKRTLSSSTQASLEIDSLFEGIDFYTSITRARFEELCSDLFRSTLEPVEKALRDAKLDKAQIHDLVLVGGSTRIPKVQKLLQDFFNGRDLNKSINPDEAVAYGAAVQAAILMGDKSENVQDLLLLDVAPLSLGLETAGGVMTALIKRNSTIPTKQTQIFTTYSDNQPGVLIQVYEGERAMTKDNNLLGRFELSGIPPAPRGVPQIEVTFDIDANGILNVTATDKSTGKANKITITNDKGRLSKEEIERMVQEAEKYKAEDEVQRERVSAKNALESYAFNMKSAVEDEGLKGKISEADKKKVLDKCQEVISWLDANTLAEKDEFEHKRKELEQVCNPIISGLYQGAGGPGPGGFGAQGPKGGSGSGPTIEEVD

[3] = target: T4, DPP9-BRCA2 interaction in HeLa wild-type cells (Homo sapiens, UniProt Q86TI2); test: Proximity ligation assay (PLA) of MMC-induced DPP9-BRCA2 interaction; format: cell-based; conditions: for 95% confidence interval of difference: compound vs. +Ctrl., Unpaired two-sided t-test
T4 construct: endogenous in cells; host or cells: HeLa wild-type (HeLa Flp-In T-REx WT)
T4 sequence (Q86TI2 whole entry): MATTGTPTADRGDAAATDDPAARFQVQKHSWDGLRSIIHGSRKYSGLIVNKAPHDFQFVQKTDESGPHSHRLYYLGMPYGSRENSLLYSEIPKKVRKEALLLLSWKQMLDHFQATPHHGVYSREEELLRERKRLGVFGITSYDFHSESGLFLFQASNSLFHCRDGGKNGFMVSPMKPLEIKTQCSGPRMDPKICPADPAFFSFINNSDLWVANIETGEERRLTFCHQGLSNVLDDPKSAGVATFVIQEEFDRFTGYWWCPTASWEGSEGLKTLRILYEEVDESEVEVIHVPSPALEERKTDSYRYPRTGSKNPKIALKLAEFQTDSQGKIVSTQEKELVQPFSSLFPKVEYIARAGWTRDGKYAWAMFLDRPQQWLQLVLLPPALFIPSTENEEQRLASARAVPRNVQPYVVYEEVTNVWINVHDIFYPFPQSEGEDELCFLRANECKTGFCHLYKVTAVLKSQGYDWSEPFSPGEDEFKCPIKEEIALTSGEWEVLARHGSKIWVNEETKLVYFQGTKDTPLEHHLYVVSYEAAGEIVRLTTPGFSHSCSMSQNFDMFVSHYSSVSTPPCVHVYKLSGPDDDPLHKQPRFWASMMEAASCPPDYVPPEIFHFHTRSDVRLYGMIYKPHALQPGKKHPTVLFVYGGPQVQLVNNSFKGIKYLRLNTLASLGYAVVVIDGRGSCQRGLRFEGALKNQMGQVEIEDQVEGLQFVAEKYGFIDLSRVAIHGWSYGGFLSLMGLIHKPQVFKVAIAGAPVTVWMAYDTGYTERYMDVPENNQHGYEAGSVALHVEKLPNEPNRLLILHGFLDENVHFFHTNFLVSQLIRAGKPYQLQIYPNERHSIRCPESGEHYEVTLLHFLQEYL
Method: HeLa wild-type cells were cultured as described above. Cells were seeded on coverslips in 24‐well plates (Greiner, Germany) at a concentration of 2 × 10^4 cells per well (37 °C and 5% CO2). To induce a DPP9-BRCA2 interaction, 300 nM MMC was added to the cells 8 h after seeding and for a total incubation time of 24 h. Indicated Inhibitors (10 µM) were added 1 h prior to cell fixation. Cells were fixed with 4% formaldehyde in PBS for 10 min and permeabilized with 0.2% Triton‐X‐100 in PBS for 5 min. The proximity ligation assay (PLA) was performed using the Duolink in situ PLA Kit (Sigma Aldrich, USA). Briefly, cells were washed with PBS and blocked with Duolink Blocking solution for 60 min at 37 °C. […] Antibody control coverslips were treated with only one primary antibody to estimate background staining in each experiment. Coverslips were washed and treated with PLA reagents according to the manufacturers protocol. Cells were mounted in DAKO with DAPI fluorescent mounting medium and analyzed using an LSM 710 confocal microscope, 63x NA 1.4 oil immersion objective (Zeiss, Germany). Images were processed using Zen black v2.3 (Zeiss, Germany) and subsequently analyzed using the Duolink ImageTool Setup 1.0.1.2 (Sigma Aldrich, USA).

Structure (SMILES) | Cell viability normalized to mock treated cells + 0 µM MMC (HeLa wild-type cells) | 95% confidence interval of difference (HeLa wild-type cells) | IC50 (PREP) [µM] | PREP activity (PREP; c 1562.5 nM) | PREP activity (PREP; c 3125 nM) | PREP activity (PREP; c 6250 nM) | PREP activity (PREP; c 25000 nM) | PREP activity (PREP; c 50000 nM) | PREP activity (PREP; c 100000 nM) | Log2-fold change (9/DMSO) [1] | Log2-fold change (9/DMSO) [2] | effect on cell viability without MMC (HeLa wild-type cells; HeLa wild-type, 10 µM, 72 h) | activity against PREP (PREP; within the nanomolar and low micromolar range (< 50 µM)) | 95% confidence interval of difference ([3]; Figure 5c) | 95% confidence interval of difference ([3]; Figure S10a replicate 1) | 95% confidence interval of difference ([3]; Figure S10a replicate 2) | 95% confidence interval of difference ([3]; Figure S10a replicate 3) | effect on MMC-induced DPP9-BRCA2 PLA events ([3]; HeLa wild-type, 300 nM MMC 24 h, 10 µM inhibitor)
CCCCCCP(=O)(OCC)N1CCC[C@H](N)C1=O (stereo partly drawn) [Compound 5] | 95.9127% and 99.5028% and 95.7865% and 114.42% and 79.6662% and 94.1915% and 91.8119% and 83.2505% and 91.8375% | -2,823 to 18,38 | – | – | – | – | – | – | – | – | – | – | – | – | – | – | – | –
C#CCCCP(=O)(OCC)N1CCCC(N)C1=O.O=C(O)C(F)(F)F (mixture of isomers) [Compound 9] | – | – | 13.4 | 90.6956% and 100.18% and 91.6611% | 81.4016% and 83.8359% and 86.7341% | 70.1184% and 68.121% and 70.2915% | 42.6998% and 39.4794% and 39.8185% | 17.1276% and 17.8294% and 21.3954% | 12.8608% and 13.0915% and 11.6555% | 0.9479 | 0.0845 | – | – | – | – | – | – | –
CCCCCc1ccc(SCCP(=O)(OCC)N2CCC[C@H](N)C2=O)cc1.O=C(O)C(F)(F)F (stereo partly drawn) [Compound 16] | 97.3681% and 98.2989% and 98.3512% and 104.946% and 88.3417% and 98.5541% and 95.4309% and 92.3469% and 88.9994% | -4,629 to 16,57 | > 50 | 98.7862% and 85.8025% and 104.946% | 105.742% and 108.717% and 107.921% | 96.1256% and 97.1517% and 97.4675% | 92.3447% and 104.519% and 98.6461% | 66.9978% and 69.9305% and 64.8732% | 38.3396% and 47.6921% and 43.692% | – | – | not toxic to cells; also recorded: did not show cytotoxic effects | no activity against PREP | -75,96 to -55,68 | -67,48 to -40,38 | -89,07 to -45,54 | -92,21 to -59,25 | significant reduction in the number of MMC-induced PLA events
